According to PubChem BioAssay (NCI):
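In this assay, cells in 96-well plates receive the compound at five concentrations for 48 hours. Endpoints are linearly interpolated between the surrounding concentrations. At the GI50, growth is halved. TGI denotes the concentration required for complete inhibition of growth.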

How the values were obtained:
Experiment in all cases: inhibition of tumour cell growth, NCI panel, 48 h
SK-MEL-2 melanoma = test system: SK-MEL-2 melanoma
786-0 renal = test system: 786-0 renal
ACHN renal = test system: ACHN renal
MDA-MB-435 = test system: MDA-MB-435
SK-MEL-5 melanoma = test system: SK-MEL-5 melanoma
CCRF-CEM leukemia = test system: CCRF-CEM leukemia
HS 578T breast = test system: HS 578T breast
UO-31 renal = test system: UO-31 renal
SNB-19 CNS = test system: SNB-19 CNS
NCI-H23 lung = test system: NCI-H23 lung
RPMI-8226 leukemia = test system: RPMI-8226 leukemia
K-562 leukemia = test system: K-562 leukemia
NCI-H522 lung = test system: NCI-H522 lung
SK-OV-3 ovarian = test system: SK-OV-3 ovarian
SF-539 CNS = test system: SF-539 CNS
SK-MEL-28 melanoma = test system: SK-MEL-28 melanoma
SF-295 CNS = test system: SF-295 CNS
MALME-3M melanoma = test system: MALME-3M melanoma
MDA-MB-231 breast = test system: MDA-MB-231 breast
HCT-15 colon = test system: HCT-15 colon
SW-620 colon = test system: SW-620 colon
HCC-2998 colon = test system: HCC-2998 colon
OVCAR-8 ovarian = test system: OVCAR-8 ovarian
UACC-257 melanoma = test system: UACC-257 melanoma
OVCAR-4 ovarian = test system: OVCAR-4 ovarian
SR leukemia = test system: SR leukemia
CAKI-1 renal = test system: CAKI-1 renal
OVCAR-5 ovarian = test system: OVCAR-5 ovarian
IGROV1 ovarian = test system: IGROV1 ovarian
RXF 393 renal = test system: RXF 393 renal
HCT-116 colon = test system: HCT-116 colon
MCF7 breast = test system: MCF7 breast
T-47D breast = test system: T-47D breast
HOP-62 NSCLC = test system: HOP-62 NSCLC
NCI-H226 lung = test system: NCI-H226 lung
U251 CNS = test system: U251 CNS
TK-10 renal = test system: TK-10 renal
COLO 205 colon = test system: COLO 205 colon
A498 renal = test system: A498 renal
M14 melanoma = test system: M14 melanoma
NCI-H460 lung = test system: NCI-H460 lung
EKVX NSCLC = test system: EKVX NSCLC
NCI/ADR-RES ovarian = test system: NCI/ADR-RES ovarian
BT-549 breast = test system: BT-549 breast
LOX IMVI melanoma = test system: LOX IMVI melanoma
UACC-62 melanoma = test system: UACC-62 melanoma
SF-268 CNS = test system: SF-268 CNS
SNB-75 CNS = test system: SNB-75 CNS
HL-60(TB) leukemia = test system: HL-60(TB) leukemia
OVCAR-3 ovarian = test system: OVCAR-3 ovarian
MOLT-4 leukemia = test system: MOLT-4 leukemia
PC-3 prostate = test system: PC-3 prostate
DU-145 prostate = test system: DU-145 prostate
A549 NSCLC = test system: A549 NSCLC
SN12C renal = test system: SN12C renal
KM12 colon = test system: KM12 colon

## ClCc1ccccc1Cn1cnc2c(Cl)nc(Cl)nc21
SK-MEL-2 melanoma
  GI50: 2250 nM
  TGI: 4720 nM
786-0 renal
  GI50: 167 nM
  TGI: 634 nM
ACHN renal
  GI50: 78.5 nM
  TGI: 316 nM
MDA-MB-435
  GI50: 1640 nM
  TGI: 3270 nM
SK-MEL-5 melanoma
  GI50: 104 nM
  TGI: 501 nM
CCRF-CEM leukemia
  GI50: 31.3 nM
  TGI: 93.9 nM
HS 578T breast
  GI50: 1190 nM
  TGI: 3550 nM
UO-31 renal
  GI50: 379 nM
  TGI: 1440 nM
SNB-19 CNS
  GI50: 1040 nM
  TGI: 2240 nM
NCI-H23 lung
  GI50: 485 nM
  TGI: 1020 nM
RPMI-8226 leukemia
  GI50: 139 nM
  TGI: 501 nM
K-562 leukemia
  GI50: 189 nM
  TGI: 1940 nM
NCI-H522 lung
  GI50: 964 nM
  TGI: 2600 nM
SK-OV-3 ovarian
  GI50: 1950 nM
  TGI: 3700 nM
SF-539 CNS
  GI50: 170 nM
  TGI: 467 nM
SK-MEL-28 melanoma
  GI50: 942 nM
  TGI: 2480 nM
SF-295 CNS
  GI50: 1580 nM
  TGI: 3110 nM
MALME-3M melanoma
  GI50: 1220 nM
  TGI: 3590 nM
MDA-MB-231 breast
  TGI: 295 nM
HCT-15 colon
  TGI: 139 nM
SW-620 colon
  GI50: < 39.2 nM
  TGI: 64.7 nM
HCC-2998 colon
  GI50: 315 nM
  TGI: 1320 nM
OVCAR-8 ovarian
  GI50: 1440 nM
  TGI: 2980 nM
UACC-257 melanoma
  GI50: 1900 nM
  TGI: 4000 nM
OVCAR-4 ovarian
  GI50: 1030 nM
  TGI: 2550 nM
SR leukemia
  GI50: 1770 nM
  TGI: 4930 nM
CAKI-1 renal
  GI50: 728 nM
  TGI: 1590 nM
OVCAR-5 ovarian
  GI50: 471 nM
  TGI: 1210 nM
IGROV1 ovarian
  GI50: 996 nM
  TGI: 2530 nM
RXF 393 renal
  GI50: 1460 nM
  TGI: 3010 nM
HCT-116 colon
  GI50: 60.5 nM
  TGI: 188 nM
MCF7 breast
  GI50: 118 nM
  TGI: > 100000 nM
T-47D breast
  GI50: 1990 nM
  TGI: 5460 nM
HOP-62 NSCLC
  GI50: 1380 nM
  TGI: 2780 nM
NCI-H226 lung
  GI50: 603 nM
  TGI: 1590 nM
U251 CNS
  GI50: 222 nM
  TGI: 602 nM
TK-10 renal
  GI50: 1020 nM
  TGI: 2490 nM
COLO 205 colon
  GI50: 163 nM
  TGI: 362 nM
A498 renal
  GI50: 2050 nM
  TGI: 4000 nM
M14 melanoma
  GI50: 453 nM
  TGI: 1070 nM
NCI-H460 lung
  GI50: 2290 nM
  TGI: 7150 nM
EKVX NSCLC
  GI50: 332 nM
  TGI: 811 nM
NCI/ADR-RES ovarian
  GI50: 552 nM
  TGI: 1330 nM
BT-549 breast
  GI50: 460 nM
  TGI: 1500 nM
LOX IMVI melanoma
  GI50: < 39.5 nM
  TGI: 169 nM
UACC-62 melanoma
  GI50: 408 nM
  TGI: 865 nM
SF-268 CNS
  GI50: 115 nM
  TGI: 556 nM
SNB-75 CNS
  GI50: 892 nM
  TGI: 2140 nM
HL-60(TB) leukemia
  GI50: 181 nM
  TGI: 1350 nM
OVCAR-3 ovarian
  GI50: 547 nM
  TGI: 1170 nM
MOLT-4 leukemia
  GI50: 574 nM
  TGI: 1590 nM
PC-3 prostate
  GI50: 425 nM
  TGI: 1610 nM
DU-145 prostate
  GI50: 207 nM
  TGI: 743 nM
A549 NSCLC
  GI50: 2820 nM
  TGI: 8800 nM
SN12C renal
  GI50: 362 nM
  TGI: 1020 nM
KM12 colon
  GI50: 1480 nM
  TGI: 2950 nM
